# Assay results from US8399465B2, “Compounds with two fused bicyclic heteroaryl moieties as modulators of leukotriene A4 hydrolase” (Janssen Pharmaceutica NV, priority 2009, dated 2013).
# Structures can show the parent of a compound that is named as a salt.
# Assays:
# [1] = molecular target: T1, recombinant human LTA4 hydrolase (rhLTA4H) (Homo sapiens, UniProt P09960); assay: Recombinant human LTA4 hydrolase assay for LTA4 hydrolase inhibitor activity; format: biochemical; details: rhLTA4H, LTB4 by immunoassay; single determination or average of two or more; mark after value = form tested: ′ free base, ″ hydrochloride, ^ formate; read-out: IC50
# T1 construct: made in house; host or cells: Spodoptera frugiperda (Sf-9) cells, baculovirus (pFastBac1)
# T1 sequence (P09960 1-611): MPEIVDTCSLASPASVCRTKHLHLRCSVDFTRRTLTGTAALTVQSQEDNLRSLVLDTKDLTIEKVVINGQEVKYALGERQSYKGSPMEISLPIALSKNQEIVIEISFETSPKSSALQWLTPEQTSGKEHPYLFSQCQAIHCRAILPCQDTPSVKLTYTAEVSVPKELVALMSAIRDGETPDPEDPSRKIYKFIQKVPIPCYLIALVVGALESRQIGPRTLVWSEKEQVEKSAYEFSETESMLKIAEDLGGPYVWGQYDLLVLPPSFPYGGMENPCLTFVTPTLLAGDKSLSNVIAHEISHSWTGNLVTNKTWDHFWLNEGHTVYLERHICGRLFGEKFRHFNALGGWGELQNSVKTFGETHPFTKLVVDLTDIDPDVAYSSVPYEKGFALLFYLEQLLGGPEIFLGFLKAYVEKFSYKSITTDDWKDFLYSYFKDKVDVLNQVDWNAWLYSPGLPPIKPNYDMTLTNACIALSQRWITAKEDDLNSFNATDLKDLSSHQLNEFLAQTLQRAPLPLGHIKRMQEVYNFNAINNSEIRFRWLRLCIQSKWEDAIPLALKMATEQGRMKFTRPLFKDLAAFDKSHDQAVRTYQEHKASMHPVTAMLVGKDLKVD
# In short: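 Baculovirus/Sf-9-expressed human LTA4H (10 ng) was preincubated 10 min at rt with compound in assay buffer (10% DMSO in compound dilution), then reacted 30 min at rt with LTA4 free acid made from its methyl ester. LTB4 produced was measured by ELISA after dilution; IC50 from non-linear regression, single or averaged determinations.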
# [2] = system: LTB4 production in murine blood (LTA4H); assay: LTB4 production by calcium ionophore-stimulated murine blood for LTA4H inhibitor activity; format: cell-based, CD-1 mice; details: Mus musculus; murine blood diluted 1 in 15, A23187 stimulated; single determination or average; mark after value = form tested: ′ free base, ″ hydrochloride, ^ formate; read-out: IC50
# In short: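 Heparinized blood from CD-1 mice was preincubated with compound for 15 min at 37° C, then stimulated with calcium ionophore A23187 (final 7 μg/mL) for 30 min. Centrifugation stopped the reaction, and LTB4 in the supernatant was measured by enzyme immunoassay. Values are single determinations or means of two or more.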
SMILES,IC50 [1] [nM],IC50 [2] [nM]
"c1cnc2nc(Oc3ccc4c(CNC5CCCCC5)coc4c3)sc2c1 [Example 299, Cyclohexyl-[6-(thiazolo[4,5-b]pyridin-2-yloxy)-benzofuran-3-ylmethyl]-amine]",16,12
"c1csc(CNCc2coc3cc(Oc4nc5ncccc5s4)ccc23)c1 [Example 300, [6-(Thiazolo[4,5-b]pyridin-2-yloxy)-benzofuran-3-ylmethyl]-thiophen-2-ylmethyl-amine]",20,150
"CC(C)(C)NCc1coc2cc(Oc3nc4ncccc4s3)ccc12 [Example 301, tert-Butyl-[6-(thiazolo[4,5-b]pyridin-2-yloxy)-benzofuran-3-ylmethyl]-amine formate]",15,4
"CC(C)(C)C1CCN(Cc2coc3cc(Oc4nc5ncccc5s4)ccc23)CC1 [Example 302, 2-[3-(4-tert-Butyl-piperidin-1-ylmethyl)-benzofuran-6-yloxy]-thiazolo[4,5-b]pyridine formate]",20,78
"CCCNCc1coc2cc(Oc3nc4ncccc4s3)ccc12 [Example 303, Propyl-[6-(thiazolo[4,5-b]pyridin-2-yloxy)-benzofuran-3-ylmethyl]-amine formate]",11,15
"CC(C)CNCc1coc2cc(Oc3nc4ncccc4s3)ccc12 [Example 304, Isobutyl-[6-(thiazolo[4,5-b]pyridin-2-yloxy)-benzofuran-3-ylmethyl]-amine formate]",3,24
"c1cnc2nc(Oc3ccc4c(CNCCN5CCOCC5)coc4c3)sc2c1 [Example 306, (2-Morpholin-4-yl-ethyl)-[6-(thiazolo[4,5-b]pyridin-2-yloxy)-benzofuran-3-ylmethyl]-amine formate]",95,10
"CC(C)CN1CCN(Cc2coc3cc(Oc4nc5ncccc5s4)ccc23)CC1 [Example 308, 2-[3-(4-Isobutyl-piperazin-1-ylmethyl)-benzofuran-6-yloxy]-thiazolo[4,5-b]pyridine formate]",9,71
"CC(=O)N[C@H]1CCN(Cc2coc3cc(Oc4nc5ncccc5s4)ccc23)C1 [Example 310, (S)—N-{1-[6-(Thiazolo[4,5-b]pyridin-2-yloxy)-benzofuran-3-ylmethyl]-pyrrolidin-3-yl}-acetamide]",13,36
"OC[C@@H]1CCCN1Cc1coc2cc(Oc3nc4ccccc4s3)ccc12 [Example 312, (S)-{1-[6-(Benzothiazol-2-yloxy)-benzofuran-3-ylmethyl]-pyrrolidin-2-yl}-methanol]",22,160
"CCCOC1CN(Cc2coc3cc(Oc4nc5ncccc5s4)ccc23)C1 [Example 314, 2-[3-(3-Propoxy-azetidin-1-ylmethyl)-benzofuran-6-yloxy]-thiazolo[4,5-b]pyridine]",15,28
"OC1CN(Cc2coc3cc(Oc4nc5ncccc5s4)ccc23)C1 [Example 315, 1-[6-(Thiazolo[4,5-b]pyridin-2-yloxy)-benzofuran-3-ylmethyl]-azetidin-3-ol]",10,34
"FC1(F)CN(Cc2coc3cc(Oc4nc5ncccc5s4)ccc23)C1 [Example 316, 2-[3-(3,3-Difluoro-azetidin-1-ylmethyl)-benzofuran-6-yloxy]-thiazolo[4,5-b]pyridine]",29,120
"c1ccc(CCNCc2coc3cc(Oc4nc5ncccc5s4)ccc23)cc1 [Example 321, Phenethyl-[6-(thiazolo[4,5-b]pyridin-2-yloxy)-benzofuran-3-ylmethyl]-amine formate]",40,51
"CC(=O)N(C1CC1)C1CCN(Cc2coc3cc(Oc4nc5ncccc5s4)ccc23)CC1 [Example 322, N-Cyclopropyl-N-{1-[6-(thiazolo[4,5-b]pyridin-2-yloxy)-benzofuran-3-ylmethyl]-piperidin-4-yl}-acetamide]",6,30
"CC(=O)N(C(C)C)C1CCN(Cc2coc3cc(Oc4nc5ncccc5s4)ccc23)CC1 [Example 323, N-Isopropyl-N-{1-[6-(thiazolo[4,5-b]pyridin-2-yloxy)-benzofuran-3-ylmethyl]-piperidin-4-yl}-acetamide]",9,41
"CC(=O)N[C@@H]1CCN(Cc2coc3cc(Oc4nc5ncccc5s4)ccc23)C1 [Example 324, (R)—N-{1-[6-(Thiazolo[4,5-b]pyridin-2-yloxy)-benzofuran-3-ylmethyl]-pyrrolidin-3-yl}-acetamide]",8,16
"c1csc(CN2CCN(Cc3coc4cc(Oc5nc6ncccc6s5)ccc34)CC2)c1 [Example 325, 2-[3-(4-Thiophen-2-ylmethyl-piperazin-1-ylmethyl)-benzofuran-6-yloxy]-thiazolo[4,5-b]pyridine]",26,78
"c1cnc2nc(Oc3ccc4c(CN5CCN6CCCC6C5)coc4c3)sc2c1 (stereo not shown) [Example 326, 2-[3-(Hexahydro-pyrrolo[1,2-a]pyrazin-2-ylmethyl)-benzofuran-6-yloxy]-thiazolo[4,5-b]pyridine]",21,120
"CCN(CC)C1CCN(Cc2coc3cc(Oc4nc5ncccc5s4)ccc23)C1 (stereo not shown) [Example 327, Diethyl-{1-[6-(thiazolo[4,5-b]pyridin-2-yloxy)-benzofuran-3-ylmethyl]-pyrrolidin-3-yl}-amine]",29,130
"F[C@@H]1CCN(Cc2coc3cc(Oc4nc5ncccc5s4)ccc23)C1 [Example 328, (R)-2-[3-(3-Fluoro-pyrrolidin-1-ylmethyl)-benzofuran-6-yloxy]-thiazolo[4,5-b]pyridine]",12,93
"Fc1ccc2c(c1)CN(Cc1coc3cc(Oc4nc5ncccc5s4)ccc13)C2 [Example 330, 2-[3-(5-Fluoro-1,3-dihydro-isoindol-2-ylmethyl)-benzofuran-6-yloxy]-thiazolo[4,5-b]pyridine]",54,1040
"c1ccc2c(c1)CN(Cc1coc3cc(Oc4nc5ncccc5s4)ccc13)C2 [Example 331, 2-[3-(1,3-Dihydro-isoindol-2-ylmethyl)-benzofuran-6-yloxy]-thiazolo[4,5-b]pyridine]",54,1060
"CC(=O)N1[C@@H]2CC[C@H]1C[C@@H](NCc1coc3cc(Oc4nc5ncccc5s4)ccc13)C2 [Example 332, meso-endo-1-(3-{[6-(Thiazolo[4,5-b]pyridin-2-yloxy)-benzofuran-3-ylmethyl]-amino}-8-aza-bicyclo[3.2.1]oct-8-yl)-ethanone formate]",8,100
"CC(=O)N1[C@@H]2CC[C@H]1C[C@H](NCc1coc3cc(Oc4nc5ncccc5s4)ccc13)C2 [Example 333, meso-exo-1-(3-{[6-(Thiazolo[4,5-b]pyridin-2-yloxy)-benzofuran-3-ylmethyl]-amino}-8-aza-bicyclo[3.2.1]oct-8-yl)-ethanone formate]",6,24
"CN(CCC(=O)O)Cc1coc2cc(Oc3nc4ncccc4s3)ccc12 [Example 335, 3-{Methyl-[6-(thiazolo[4,5-b]pyridin-2-yloxy)-benzofuran-3-ylmethyl]-amino}-propionic acid formate]",5,200
